Assay results reported in US9428519B2, “Acylated derivative of homoharringtonine, preparation method therefor, and application thereof” (HANGZHOU BENSHENG PHARMACEUTICAL CO., LTD., priority 2011, dated 2016).
Converted amounts (≈) assume the structure as drawn.

Experiments:
[1] = tested on: A549 (human lung cancer); assay: MTT growth inhibition of human solid tumor cells, 72 h; format: cell-based
Experimental: (§1) Human solid tumor cell lines: Hep-2 (laryngeal carcinoma), A549 (human lung cancer), CaES-17 (esophageal cancer cell), PC-3 (prostate cancer), CNE (nasopharyngeal carcinoma cell), and SK-OV-3 (ovarian cancer cell), all of which are purchased from China Center For Type Culture Collection; RKO (human colon adenocarcinoma cell), MGC 803 (human gastric cancer cell), MG63 (osteosarcoma) and U87 MG (malignant glioma cell), all of which are purchased from Fuxiang Bio-tech Co. Ltd., Shanghai, China; PANC-1 (pancreatic cancer), Huh7 (human liver cancer cell), Becap37 (human breast cancer cell), and Hela (human cervical cancer cell), all of which are donated by Cancer Research Institute of Zhejiang University, China.
(§2) Obtaining 4000 well-growing human solid tumor cells and inoculating them into wells of a 96-well cell culture plate. The culture medium is DMEM High Glucose cell culture medium containing 10% fetal bovine serum. The plate is placed in a carbon dioxide cell incubator (5% CO2) at 37° C. and incubated for 24 hours. After adding the homoharringtonine derivatives of different concentration and mixing uniformly, the plate is placed in a carbon dioxide cell incubator (5% CO2) at 37° C. and incubated for 72 hours. Then the viable cell concentration is determined by the MTT method and the cell viability (%) after drug treatment is calculated. In this experiment, the cell viability of control group (not treated with any compound) is set as 100%.

[2] = tested on: CNE (nasopharyngeal carcinoma cell); assay: as above; format: cell-based; conditions: MTT
Experimental: as §1, §2

[3] = tested on: PC-3 (prostate cancer); assay: as above; format: cell-based; conditions: MTT
Experimental: as §1, §2

[4] = tested on: Becap37 (human breast cancer cell); assay: as above; format: cell-based
Experimental: as §1, §2

[5] = tested on: PANC-1 (pancreatic cancer); assay: as above; format: cell-based
Experimental: as §1, §2

[6] = tested on: Huh7 (human liver cancer cell); assay: as above; format: cell-based
Experimental: as §1, §2

[7] = tested on: CaES-17 (esophageal cancer cell); assay: as above; format: cell-based
Experimental: as §1, §2

[8] = tested on: MG63 (osteosarcoma); assay: as above; format: cell-based
Experimental: as §1, §2

[9] = tested on: U87 MG (malignant glioma cell); assay: as above; format: cell-based
Experimental: as §1, §2

[10] = tested on: RKO (human colon adenocarcinoma cell); assay: as above; format: cell-based
Experimental: as §1, §2

[11] = tested on: MGC 803 (human gastric cancer cell); assay: as above; format: cell-based
Experimental: as §1, §2

[12] = tested on: Hep-2 (laryngeal carcinoma); assay: as above; format: cell-based
Experimental: as §1, §2

[13] = tested on: SK-OV-3 (ovarian cancer cell); assay: as above; format: cell-based
Experimental: as §1, §2

[14] = tested on: Hela (human cervical cancer cell); assay: as above; format: cell-based; conditions: MTT
Experimental: as §1, §2

[15] = tested on: RPMI8226 (multiple myeloma); assay: MTT growth inhibition of multiple myeloma cells, 72 h; format: cell-based, human
Experimental: Multiple myeloma and lymphoma cell lines: RPMI8226 (multiple myeloma), purchased from Fuxiang Bio-tech Co. Ltd., Shanghai, China.
(§3) Obtaining 6000 well-growing leukemia cells and inoculating them into wells of a 96-well cell culture plate. The culture medium is the 1640 cell culture medium containing 10% fetal bovine serum. After adding the homoharringtonine derivatives of different concentrations and mixing uniformly, placing the plate in a carbon dioxide cell incubator (5% CO2) at 37° C. and incubated for 72 hours. Then the viable cell concentration is determined by the MTT method. In this experiment, the cell viability in control group (not treated with any compound) is set as 100%. On such basis, the cell viability (%) after treatment and the 50% inhibiting concentration of the compound for the leukemia cell growth at 72 hours (IC50 value of 72 hours) are calculated.

[16] = tested on: K562/adr (drug-resistant, chronic myeloid leukemia, CML); assay: MTT growth inhibition of leukemia cells, 72 h; format: cell-based, human; conditions: MTT
Description: (§4) Leukemia cell lines: leukemia cell lines: K562/adr (drug-resistant, chronic myeloid leukemia, CML), NB4 (acute promyelocytic leukemia, AML), Kasumi-1 (acute myeloid leukemia M2 type, AML-M2), Jurkat (acute lymphoblastic leukemia, ALL), all of which are donated by Cancer Research Institute of Zhejiang University, China; and H9 (acute lymphoblastic leukemia, ALL), which is purchased from China Center for Type Culture Collection (CCTCC).
(§5) Reagents: The standard sample of homoharringtonine (HHT) is purchased from Taihua Natural Plant Pharmaceutical Co., Ltd., Shaanxi, China, the homoharringtonine derivatives of the present invention.
as §3

[17] = tested on: Jurkat (acute lymphoblastic leukemia, ALL); assay: MTT growth inhibition of leukemia cells, 72 h; format: cell-based, human
Description: as §4, §5, §3

[18] = tested on: Kasumi-1 (acute myeloid leukemia M2 type, AML-M2); assay: MTT growth inhibition of leukemia cells, 72 h; format: cell-based, human
Description: as §4, §5, §3

[19] = tested on: NB4 (acute promyelocytic leukemia, AML); assay: MTT growth inhibition of leukemia cells, 72 h; format: cell-based, human; conditions: MTT
Description: as §4, §5, §3

[20] = tested on: H9 (acute lymphoblastic leukemia, ALL); assay: MTT growth inhibition of leukemia cells, 72 h; format: cell-based, human; conditions: MTT
Description: as §4, §5, §3

COC(=O)C[C@](O)(CCCC(C)(C)OC(=O)c1ccco1)C(=O)O[C@@H]1C(OC)=C[C@]23CCCN2CCc2cc4c(cc2[C@H]13)OCO4 [BS-HH-059]
IC50 ([1]; Homo sapiens, A549): 0.03 µg/mL (≈ 0.0469 µM) | IC90 ([1]; Homo sapiens, A549): > 16 µg/mL | IC50 ([2]; Homo sapiens): 0.031 µg/mL (≈ 0.0485 µM) | IC90 ([2]; Homo sapiens): > 16 µg/mL | IC50 ([3]; Homo sapiens): 0.08 µg/mL (≈ 0.125 µM) | IC90 ([3]; Homo sapiens): > 16 µg/mL | IC50 ([4]; Homo sapiens): 0.007 µg/mL (≈ 0.0109 µM) | IC90 ([4]; Homo sapiens): 7.4 µg/mL (≈ 11.6 µM) | IC50 ([5]; Homo sapiens, PANC-1, MTT): 0.029 µg/mL (≈ 0.0453 µM) | IC90 ([5]; Homo sapiens, PANC-1, MTT): > 16 µg/mL | IC50 ([6]; Homo sapiens, Huh-7): 0.012 µg/mL (≈ 0.0188 µM) | IC90 ([6]; Homo sapiens, Huh-7): 0.081 µg/mL (≈ 0.127 µM) | IC50 ([7]; Homo sapiens, CaEs17): 0.029 µg/mL (≈ 0.0453 µM) | IC90 ([7]; Homo sapiens, CaEs17): 16 µg/mL (≈ 25 µM) | IC50 ([8]; Homo sapiens, MG-63, MTT): 0.02 µg/mL (≈ 0.0313 µM) | IC90 ([8]; Homo sapiens, MG-63, MTT): 3.08 µg/mL (≈ 4.81 µM) | anti-MG63 effect relative to homoharringtonine ([8]; vs HHT): substantially superior | IC50 ([9]; Homo sapiens, U-87 MG): 0.023 µg/mL (≈ 0.036 µM) | IC90 ([9]; Homo sapiens, U-87 MG): 0.18 µg/mL (≈ 0.281 µM) | IC50 ([10]; Homo sapiens, MTT): 0.001 µg/mL (≈ 0.00156 µM) | IC90 ([10]; Homo sapiens, MTT): 0.015 µg/mL (≈ 0.0234 µM) | anti-RKO effect relative to homoharringtonine ([10]; vs HHT): substantially superior | IC50 ([11]; Homo sapiens, MGC-803): 0.021 µg/mL (≈ 0.0328 µM) | IC90 ([11]; Homo sapiens, MGC-803): 0.11 µg/mL (≈ 0.172 µM) | IC50 ([12]; Homo sapiens, HEp-2): 0.015 µg/mL (≈ 0.0234 µM) | IC90 ([12]; Homo sapiens, HEp-2): > 16 µg/mL | IC50 ([13]; Homo sapiens, SK-OV-3, MTT): 0.08 µg/mL (≈ 0.125 µM) | IC90 ([13]; Homo sapiens, SK-OV-3, MTT): > 16 µg/mL | IC50 ([14]; Homo sapiens, HeLa): 0.014 µg/mL (≈ 0.0219 µM) | IC90 ([14]; Homo sapiens, HeLa): 16 µg/mL (≈ 25 µM) | IC50 ([15]; Homo sapiens, RPMI-8226, MTT): 0.006 µg/mL (≈ 0.00938 µM) | IC90 ([15]; Homo sapiens, RPMI-8226, MTT): 0.039 µg/mL (≈ 0.061 µM) | IC50 ([16]; Homo sapiens, K562/Adr): 0.03 µg/mL (≈ 0.0469 µM) | IC90 ([16]; Homo sapiens, K562/Adr): 0.35 µg/mL (≈ 0.547 µM) | IC50 ([17]; Homo sapiens, Jurkat): 0.003 µg/mL (≈ 0.00469 µM) | IC90 ([17]; Homo sapiens, Jurkat): ≥ 16 µg/mL | IC50 ([18]; Homo sapiens, Kasumi 1, MTT): 0.005 µg/mL (≈ 0.00782 µM) | IC90 ([18]; Homo sapiens, Kasumi 1, MTT): 0.012 µg/mL (≈ 0.0188 µM) | IC50 ([19]; Homo sapiens): 0.006 µg/mL (≈ 0.00938 µM) | IC90 ([19]; Homo sapiens): 0.012 µg/mL (≈ 0.0188 µM) | IC50 ([20]; Homo sapiens): 0.007 µg/mL (≈ 0.0109 µM) | IC90 ([20]; Homo sapiens): 0.02 µg/mL (≈ 0.0313 µM)

COC(=O)C[C@](O)(CCCC(C)(C)OC(=O)c1cnoc1C)C(=O)O[C@@H]1C(OC)=C[C@]23CCCN2CCc2cc4c(cc2[C@H]13)OCO4 [BS-HH-061]
IC50 A549 [1]: 0.52 µg/mL (≈ 0.794 µM) | IC90 A549 [1]: >16 µg/mL | IC50 CNE [2]: 0.42 µg/mL (≈ 0.642 µM) | IC90 CNE [2]: >16 µg/mL | IC50 PC-3 [3]: 3.15 µg/mL (≈ 4.81 µM) | IC90 PC-3 [3]: >16 µg/mL | IC50 Becap37 [4]: 0.17 µg/mL (≈ 0.26 µM) | IC90 Becap37 [4]: 16 µg/mL (≈ 24.4 µM) | IC50 PANC-1 ([5]; MTT): 0.21 µg/mL (≈ 0.321 µM) | IC90 PANC-1 ([5]; MTT): >16 µg/mL | IC50 Huh7 [6]: 0.056 µg/mL (≈ 0.0855 µM) | IC90 Huh7 [6]: 0.34 µg/mL (≈ 0.519 µM) | IC50 CaES-17 [7]: 0.38 µg/mL (≈ 0.58 µM) | IC90 CaES-17 [7]: 16 µg/mL (≈ 24.4 µM) | IC50 MG 63 ([8]; MTT): 0.093 µg/mL (≈ 0.142 µM) | IC90 MG 63 ([8]; MTT): 10.76 µg/mL (≈ 16.4 µM) | IC50 U87 MG [9]: 0.31 µg/mL (≈ 0.473 µM) | IC90 U87 MG [9]: 0.96 µg/mL (≈ 1.47 µM) | IC50 RKO ([10]; MTT): 0.039 µg/mL (≈ 0.0596 µM) | IC90 RKO ([10]; MTT): 0.24 µg/mL (≈ 0.367 µM) | IC50 MGC 803 [11]: 0.058 µg/mL (≈ 0.0886 µM) | IC90 MGC 803 [11]: 0.16 µg/mL (≈ 0.244 µM) | IC50 Hep-2 [12]: 0.39 µg/mL (≈ 0.596 µM) | IC90 Hep-2 [12]: >16 µg/mL | IC50 SK-OV-3 ([13]; MTT): 0.4 µg/mL (≈ 0.611 µM) | IC90 SK-OV-3 ([13]; MTT): >16 µg/mL | IC50 Hela [14]: 0.31 µg/mL (≈ 0.473 µM) | IC90 Hela [14]: 16 µg/mL (≈ 24.4 µM) | IC50 RPMI8226 ([15]; MTT): 0.062 µg/mL (≈ 0.0947 µM) | IC90 RPMI8226 ([15]; MTT): 0.25 µg/mL (≈ 0.382 µM) | IC50 K562/adr [16]: 0.24 µg/mL (≈ 0.367 µM) | IC90 K562/adr [16]: 12.57 µg/mL (≈ 19.2 µM) | IC50 Jurkat [17]: 0.071 µg/mL (≈ 0.108 µM) | IC90 Jurkat [17]: ≥ 16 µg/mL | IC50 Kasumi-1 ([18]; MTT): 0.062 µg/mL (≈ 0.0947 µM) | IC90 Kasumi-1 ([18]; MTT): 0.23 µg/mL (≈ 0.351 µM) | IC50 NB4 [19]: 0.07 µg/mL (≈ 0.107 µM) | IC90 NB4 [19]: 0.14 µg/mL (≈ 0.214 µM) | IC50 H9 [20]: 0.14 µg/mL (≈ 0.214 µM) | IC90 H9 [20]: 0.25 µg/mL (≈ 0.382 µM)
